Tests used:
Experiment in all cases: Weeding effect in post-emergence stage
Assay type in all cases: in vivo
Details in all cases: level of fresh weight growth control rate
Echinochloa crusgalli = test system: Echinochloa crusgalli
Method in brief: (§1)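 Pot-grown greenhouse plants sprayed at 2–3 leaf stage, 2 weeks after sowing, with compound in acetone/Tween 80 plus methyl oleate emulsifiable concentrate (1.5 liter/ha) at 500–7.5 g/ha. Growth control rated 3 weeks after treatment; mean of three replicates.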

Alopecurus japonicus = test system: Alopecurus japonicus
Method in brief: as §1

Digitaria sanguinalis = test system: Digitaria sanguinalis
Method in brief: as §1

Eleusine indica = test system: Eleusine indica
Method in brief: as §1

Setaria viridis = test system: Setaria viridis
Method in brief: as §1

Abutilon theophrasti = test system: Abutilon theophrasti
Method in brief: as §1

SMILES	Weeding effect in post-emergence stage, Echinochloa crusgalli (Echinochloa crusgalli; Dose 15 g/ha)	Weeding effect in post-emergence stage, Alopecurus japonicus (Alopecurus japonicus; Dose 15 g/ha)	Weeding effect in post-emergence stage, Digitaria sanguinalis (Digitaria sanguinalis; Dose 15 g/ha)	Weeding effect in post-emergence stage, Eleusine indica (Eleusine indica; Dose 15 g/ha)	Weeding effect in post-emergence stage, Setaria viridis (Setaria viridis; Dose 15 g/ha)	Weeding effect in post-emergence stage, Abutilon theophrasti (Abutilon theophrasti; Dose 15 g/ha)	Weeding effect in post-emergence stage, Echinochloa crusgalli (Echinochloa crusgalli; Dose 30 g/ha)	Weeding effect in post-emergence stage, Alopecurus japonicus (Alopecurus japonicus; Dose 30 g/ha)	Weeding effect in post-emergence stage, Digitaria sanguinalis (Digitaria sanguinalis; Dose 30 g/ha)	Weeding effect in post-emergence stage, Eleusine indica (Eleusine indica; Dose 30 g/ha)	Weeding effect in post-emergence stage, Setaria viridis (Setaria viridis; Dose 30 g/ha)	Weeding effect in post-emergence stage, Abutilon theophrasti (Abutilon theophrasti; Dose 30 g/ha)	further results
CCOC(=O)C(C)=NOC(=O)C(C)ON=Cc1cc(-n2c(=O)cc(C(F)(F)F)n(C)c2=O)c(F)cc1Cl [254(R)]	5 (Level 5: growth control rate is above 85%)	5 (Level 5: growth control rate is above 85%)	5 (Level 5: growth control rate is above 85%)	5 (Level 5: growth control rate is above 85%)	5 (Level 5: growth control rate is above 85%)	5 (Level 5: growth control rate is above 85%)	–	–	–	–	–	–	–
C[C@@H](O/N=C/c1cc(-n2c(=O)cc(C(F)(F)F)n(C)c2=O)c(F)cc1Cl)C(=O)O/N=C/c1ccccc1 [255(R)]	–	–	–	–	–	–	5 (Level 5: growth control rate is above 85%)	5 (Level 5: growth control rate is above 85%)	5 (Level 5: growth control rate is above 85%)	5 (Level 5: growth control rate is above 85%)	5 (Level 5: growth control rate is above 85%)	5 (Level 5: growth control rate is above 85%)	–
CC(C)=NOCCOC(=O)[C@@H](C)O/N=C/c1cc(-n2c(=O)cc(C(F)(F)F)n(C)c2=O)c(F)cc1Cl [259(R)]	–	–	–	–	–	–	5 (Level 5: growth control rate is above 85%)	5 (Level 5: growth control rate is above 85%)	5 (Level 5: growth control rate is above 85%)	5 (Level 5: growth control rate is above 85%)	5 (Level 5: growth control rate is above 85%)	5 (Level 5: growth control rate is above 85%)	–
C[C@@H](O/N=C/c1cc(-n2c(=O)cc(C(F)(F)F)n(C)c2=O)c(F)cc1Cl)C(=O)Oc1ccccc1 [262(R)]	5 (Level 5: growth control rate is above 85%)	5 (Level 5: growth control rate is above 85%)	5 (Level 5: growth control rate is above 85%)	5 (Level 5: growth control rate is above 85%)	5 (Level 5: growth control rate is above 85%)	5 (Level 5: growth control rate is above 85%)	–	–	–	–	–	–	–
C[C@@H](O/N=C/c1cc(-n2c(=O)cc(C(F)(F)F)n(C)c2=O)c(F)cc1Cl)C(=O)ON1C(=O)CCC1=O [263(R)]	–	–	–	–	–	–	–	–	–	–	–	–	Weeding effect in post-emergence stage, Echinochloa crusgalli (Echinochloa crusgalli; Dose 60 g/ha): 5 (Level 5: growth control rate is above 85%); Weeding effect in post-emergence stage, Alopecurus japonicus (Alopecurus japonicus; Dose 60 g/ha): 5 (Level 5: growth control rate is above 85%); Weeding effect in post-emergence stage, Digitaria sanguinalis (Digitaria sanguinalis; Dose 60 g/ha): 5 (Level 5: growth control rate is above 85%); Weeding effect in post-emergence stage, Eleusine indica (Eleusine indica; Dose 60 g/ha): 5 (Level 5: growth control rate is above 85%); Weeding effect in post-emergence stage, Setaria viridis (Setaria viridis; Dose 60 g/ha): 5 (Level 5: growth control rate is above 85%); Weeding effect in post-emergence stage, Abutilon theophrasti (Abutilon theophrasti; Dose 60 g/ha): 5 (Level 5: growth control rate is above 85%)
C[C@@H](O/N=C/c1cc(-n2c(=O)cc(C(F)(F)F)n(C)c2=O)c(F)cc1Cl)C(=O)OCC1OCCO1 [266(R)]	–	–	–	–	–	–	5 (Level 5: growth control rate is above 85%)	5 (Level 5: growth control rate is above 85%)	5 (Level 5: growth control rate is above 85%)	5 (Level 5: growth control rate is above 85%)	5 (Level 5: growth control rate is above 85%)	5 (Level 5: growth control rate is above 85%)	–
C[C@@H](O/N=C/c1cc(-n2c(=O)cc(C(F)(F)F)n(C)c2=O)c(F)cc1Cl)C(=O)OCc1cccs1 [268(R)]	–	–	–	–	–	–	5 (Level 5: growth control rate is above 85%)	5 (Level 5: growth control rate is above 85%)	5 (Level 5: growth control rate is above 85%)	5 (Level 5: growth control rate is above 85%)	5 (Level 5: growth control rate is above 85%)	5 (Level 5: growth control rate is above 85%)	–
C[C@@H](O/N=C/c1cc(-n2c(=O)cc(C(F)(F)F)n(C)c2=O)c(F)cc1Cl)C(=O)OCc1ccccc1F [284(R)]	5 (Level 5: growth control rate is above 85%)	5 (Level 5: growth control rate is above 85%)	5 (Level 5: growth control rate is above 85%)	5 (Level 5: growth control rate is above 85%)	5 (Level 5: growth control rate is above 85%)	5 (Level 5: growth control rate is above 85%)	–	–	–	–	–	–	–
C[C@@H](O/N=C/c1cc(-n2c(=O)cc(C(F)(F)F)n(C)c2=O)c(F)cc1Cl)C(=O)OCc1cccc(F)c1 [285(R)]	–	–	–	–	–	–	5 (Level 5: growth control rate is above 85%)	5 (Level 5: growth control rate is above 85%)	5 (Level 5: growth control rate is above 85%)	5 (Level 5: growth control rate is above 85%)	5 (Level 5: growth control rate is above 85%)	5 (Level 5: growth control rate is above 85%)	–
C[C@@H](O/N=C/c1cc(-n2c(=O)cc(C(F)(F)F)n(C)c2=O)c(F)cc1Cl)C(=O)OCc1ccc(F)cc1 [286(R)]	–	–	–	–	–	–	5 (Level 5: growth control rate is above 85%)	5 (Level 5: growth control rate is above 85%)	5 (Level 5: growth control rate is above 85%)	5 (Level 5: growth control rate is above 85%)	5 (Level 5: growth control rate is above 85%)	5 (Level 5: growth control rate is above 85%)	–
C[C@@H](O/N=C/c1cc(-n2c(=O)cc(C(F)(F)F)n(C)c2=O)c(F)cc1Cl)C(=O)OCc1cccnc1 [302(R)]	5 (Level 5: growth control rate is above 85%)	5 (Level 5: growth control rate is above 85%)	5 (Level 5: growth control rate is above 85%)	5 (Level 5: growth control rate is above 85%)	5 (Level 5: growth control rate is above 85%)	5 (Level 5: growth control rate is above 85%)	–	–	–	–	–	–	–
C[C@@H](O/N=C/c1cc(-n2c(=O)cc(C(F)(F)F)n(C)c2=O)c(F)cc1Cl)C(=O)OCc1ccncc1 [303(R)]	5 (Level 5: growth control rate is above 85%)	5 (Level 5: growth control rate is above 85%)	5 (Level 5: growth control rate is above 85%)	5 (Level 5: growth control rate is above 85%)	5 (Level 5: growth control rate is above 85%)	5 (Level 5: growth control rate is above 85%)	–	–	–	–	–	–	–
CCOC(=O)[C@@H](F)O/N=C/c1cc(-n2c(=O)cc(C(F)(F)F)n(C)c2=O)c(F)cc1Cl [313(R)]	5 (Level 5: growth control rate is above 85%)	5 (Level 5: growth control rate is above 85%)	5 (Level 5: growth control rate is above 85%)	5 (Level 5: growth control rate is above 85%)	5 (Level 5: growth control rate is above 85%)	5 (Level 5: growth control rate is above 85%)	–	–	–	–	–	–	–
CCC[C@@H](O/N=C/c1cc(-n2c(=O)cc(C(F)(F)F)n(C)c2=O)c(F)cc1Cl)C(=O)OC [316(R)]	5 (Level 5: growth control rate is above 85%)	5 (Level 5: growth control rate is above 85%)	5 (Level 5: growth control rate is above 85%)	5 (Level 5: growth control rate is above 85%)	5 (Level 5: growth control rate is above 85%)	5 (Level 5: growth control rate is above 85%)	–	–	–	–	–	–	–
COC(=O)[C@H](O/N=C/c1cc(-n2c(=O)cc(C(F)(F)F)n(C)c2=O)c(F)cc1Cl)C(C)C [318(R)]	5 (Level 5: growth control rate is above 85%)	5 (Level 5: growth control rate is above 85%)	5 (Level 5: growth control rate is above 85%)	5 (Level 5: growth control rate is above 85%)	5 (Level 5: growth control rate is above 85%)	5 (Level 5: growth control rate is above 85%)	–	–	–	–	–	–	–
